Reference: paper PMC5923397, “A New Breviane Spiroditerpenoid from the Marine-Derived Fungus Penicillium sp. TJ403-1” (Marine Drugs, 2018)

Assays:
A-549 = experiment: Cytotoxicity assay (MTT), A-549; assay type: cell-based, human; conditions: 48 h exposure
Protocol: (§1) Five human tumor cell lines (HL-60, MM231, A-549, HEP3B, and SW480), together with one non-cancerous cell line, the human normal colonic epithelial cell NCM460, were used in the cytotoxic activity assay. All cells were cultured in DMEM or RPMI-1640 medium (HyClone, Logan, UT, USA), supplemented with 10% fetal bovine serum (HyClone) at 37 °C in a humidified atmosphere with 5% CO2. The cell survival assay was performed using the MTT method. Briefly, 100 μL suspended cells at an initial density of 1 × 10^5 cells/mL were seeded into each well of the 96-well culture plates and allowed to adhere for 12 h before addition of the test compounds. […] After incubation, culture supernatants were removed and exchanged with medium containing 0.5 mg/mL MTT. Then, after 4 h incubation in darkness at 37 °C, the medium was removed, and cells were added with 100 μL dimethyl sulfoxide. The absorbance at 570 nm was measured and data are expressed as averages of three replicates. The value of inhibition was calculated by using the following formula: % inhibition = (1 − ODtreated/ODcontrol) × 100. The IC50 values were calculated by using a standard dose-response curve fitting with Prism (version 5.0, GraphPad Software, La Jolla, CA, USA).

NCM460 = experiment: Cytotoxicity assay (MTT), normal colonic epithelial cell NCM460; assay type: cell-based, human; conditions: for IC50: MTT, 48 h exposure
Protocol: as §1

MM231 = experiment: Cytotoxicity assay (MTT), MM231; assay type: cell-based, human; conditions: MM231 (breast cancer), 48 h exposure
Protocol: as §1

SW480 = experiment: Cytotoxicity assay (MTT), SW480; assay type: cell-based, human; conditions: SW480 (colon cancer), 48 h exposure
Protocol: as §1

HEP3B = experiment: Cytotoxicity assay (MTT), HEP3B; assay type: cell-based, human; conditions: HEP3B (hepatic cancer), 48 h exposure
Protocol: as §1

HL-60 = experiment: Cytotoxicity assay (MTT), HL-60; assay type: cell-based; conditions: Homo sapiens, HL-60 (acute leukemia), 48 h exposure
Protocol: as §1

[1] = Homo sapiens, A549, A-549 (lung cancer)

| Compound | IC50 (A-549; A-549 (lung cancer)) [µM] | IC50 (NCM460) [µM] | IC50 (MM231) [µM] | IC50 (SW480) [µM] | IC50 (HEP3B) [µM] | IC50 (A-549; [1]) [µM] | IC50 (HL-60) [µM] | IC50 (NCM460; Homo sapiens) [µM] | IC50 (MM231; Homo sapiens) [µM] | IC50 (SW480; Homo sapiens) [µM] | IC50 (HEP3B; Homo sapiens) [µM] | cytotoxic activity against the NCM460 cell (NCM460; result in words) |
| --- | --- | --- | --- | --- | --- | --- | --- | --- | --- | --- | --- | --- |
| N.N.[Cl][Pt][Cl] [Cis-platin, cis-platin, reference compound] | 2.79 ± 0.36 | 0.85 ± 0.07 | 3.84 ± 0.25 | 1.42 ± 0.11 | 2.96 ± 0.22 | – | – | – | – | – | – | – |
| CC(=O)O[C@H]1C(=O)[C@@]2(C)[C@H]([C@H](OC(=O)c3ccccc3)[C@]3(O)C[C@H](OC(=O)[C@H](O)[C@@H](NC(=O)c4ccccc4)c4ccccc4)C(C)=C1C3(C)C)[C@]1(OC(C)=O)CO[C@@H]1C[C@@H]2O [Paclitaxel, paclitaxel, reference compound] | – | – | – | – | – | < 0.008 | < 0.008 | < 0.008 | < 0.008 | < 0.008 | < 0.008 | – |
| CC1=CC(O)C2C3(C)C(O)CC(=O)C(C)(C)C3CCC2(C)C12Cc1c(c(C)c(C)oc1=O)O2 (stereo not drawn) [compound 1, brevione O] | – | – | – | – | – | > 40 | > 40 | > 40 | > 40 | > 40 | > 40 | – |
| CC1=C[C@H](O)[C@@H]2[C@@]3(C)C=CC(=O)C(C)(C)[C@@H]3CC[C@@]2(C)[C@]12Cc1c(c(C)c(C)oc1=O)O2 [compound 2, brevione I] | – | – | – | – | – | 8.6 ± 1.36 | 4.92 ± 0.65 | > 40 | > 40 | 21.2 ± 2.72 | 5.5 ± 0.67 | no cytotoxic activity |
| CC1=C[C@H](O)[C@@H]2[C@@]3(C)CCC(=O)C(C)(C)[C@@H]3CC[C@@]2(C)[C@]12Cc1c(c(C)c(C)oc1=O)O2 [compound 3, brevione J] | – | – | – | – | – | > 40 | 25.6 ± 3.84 | > 40 | > 40 | > 40 | > 40 | – |
| CC1=CC(=O)C[C@@H]2O[C@@H]3C=C(C)[C@@]45Oc6c(C)c(C)oc(=O)c6[C@@H]4O[C@H](O)[C@]54CC[C@@H]1[C@@]2(C)[C@@H]34 [compound 4, brevione H] | – | – | – | – | – | > 40 | > 40 | > 40 | > 40 | > 40 | > 40 | – |
| C=CC(C)(C)C12CC3C(=O)NC(C(C)C)C(=O)N3C1N(C(C)=O)c1ccccc12 (stereo not drawn) [compound 5, brevicompanine G] | – | – | – | – | – | 18.4 ± 2.15 | 21.8 ± 3.48 | > 40 | > 40 | > 40 | > 40 | – |
